Marks after values point to notes of the source that are not given here.
Tested on: SK-N-BE(2)C xenografts
Assay: Ex vivo biodistribution (γ-counter), mice bearing SK-N-BE(2)C xenografts
Assay type: in vivo
Details: for ^18F-mFBG biodistribution 4 h p.i., Blood / ^18F-mFBG biodistribution 4 h p.i., Bone / ^18F-mFBG biodistribution 4 h p.i., Brown adipose / ^18F-mFBG biodistribution 4 h p.i., Heart / ^18F-mFBG biodistribution 4 h p.i., Kidney / ^18F-mFBG biodistribution 4 h p.i., Liver / ^18F-mFBG biodistribution 4 h p.i., Lungs / ^18F-mFBG biodistribution 4 h p.i., Muscle / ^18F-mFBG biodistribution 4 h p.i., Pancreas / ^18F-mFBG biodistribution 4 h p.i., Small intestine / ^18F-mFBG biodistribution 4 h p.i., Spleen / ^18F-mFBG biodistribution 4 h p.i., Tumour / ^18F-mFBG biodistribution 4 h p.i., Tumour:blood / ^18F-mFBG biodistribution 4 h p.i., Tumour:muscle: SK-N-BE(2)C
Description: All studies were conducted in compliance with licenses issued under the UK Animals (Scientific Procedures) Act 1986 and approved by the Institute of Cancer Research Animal Welfare and Ethical Review Body (AWERB) according to the United Kingdom National Cancer Research Institute Guidelines for Animal Welfare in Cancer Research (project license PCC916B22, Animals in Science Regulation Unit, Home Office Science, London, UK)[65]. Female Nu(NCr)-Foxn1nu mice (5–7 weeks; 20–22 g) obtained from an in-house breeding colony were used in the studies. Animals were housed in a temperature-controlled facility with 12 h on–12 h off light cycle and provided water and laboratory rodent food ad libitum. Subcutaneous xenografts were generated by injection of either Kelly (5 × 10^6/0.1 mL PBS/Matrigel 30% v/v; BD Matrigel Matrix, BD Bioscience, San Jose, California, US) or SK-N-BE(2)C (1 × 10^6/0.1 mL PBS/Matrigel) into the lower flank. For the treatment studies, AZD2014 stock solution in DMSO was diluted in PEG400 to a final concentration of 2 mg/mL (10% DMSO maximum). When tumours reached ~ 100 mm^3 (calliper measurements using formula: Volume = (Width(2) × Length)/2), mice were treated daily, for a total of either 1, 3 or 7 days, by oral gavage with AZD2014 (20 or 25 mg/kg/day) or vehicle control. Mice were monitored daily for body weight or other adverse effects.
When the tumours reached approximately 100–200 mm^3, mice were anaesthetised with an isoflurane/O2 mixture (1.5–2.0% v/v) and intravenously injected with either ^18F-mFBG (~ 7.5 MBq) or ^123I-mIBG (~ 20 MBq). Mice were then imaged using an Albira PET/SPECT/CT scanner (Bruker, Coventry, UK). Whole body PET static images were acquired after 1 and 4 h post-injection (p.i.) for 10 min with an energy window of 358 to 664 keV followed by CT acquisition. Acquisition, reconstruction and image analysis were performed as described previously. Following the final scan, the mice were sacrificed and the major organs were excised, weighed and their associated radioactivity was measured using a γ-counter. Biodistribution and image quantification were expressed as a percentage of injected dose per gram of tissue (%ID/g), whereby 1 cm^3 on PET acquisitions were assumed to equal 1 g (n ≥ 3 mice ± SD).

[1] = SK-N-BE(2)C xenografts, 4 h p.i.

## N=C(N)NCc1cccc([18F])c1 [^18F-mFBG, ^18F-meta-fluorobenzylguanidine]
[1]
  Tumour-to-blood ratio: 17.69 ± 10.00
  tumour-to-muscle ratio: 6.24 ± 3.64
SK-N-BE(2)C xenografts, 4 h p.i., n = 5
  tumour uptake: 2.96 ± 1.38 %ID/g
3 Day AZD2014 (20 mg/kg/day)
  ^18F-mFBG biodistribution 4 h p.i., Blood: 0.16 ± 0.02 %ID/g
  ^18F-mFBG biodistribution 4 h p.i., Bone: 2.42 ± 2.57 %ID/g
  ^18F-mFBG biodistribution 4 h p.i., Brown adipose: 5.32 ± 1.51^b %ID/g
  ^18F-mFBG biodistribution 4 h p.i., Heart: 3.20 ± 0.43^a %ID/g
  ^18F-mFBG biodistribution 4 h p.i., Kidney: 0.89 ± 0.13 %ID/g
  ^18F-mFBG biodistribution 4 h p.i., Liver: 1.74 ± 0.23 %ID/g
  ^18F-mFBG biodistribution 4 h p.i., Lungs: 1.04 ± 0.12 %ID/g
  ^18F-mFBG biodistribution 4 h p.i., Muscle: 0.55 ± 0.09 %ID/g
  ^18F-mFBG biodistribution 4 h p.i., Pancreas: 1.29 ± 0.51 %ID/g
  ^18F-mFBG biodistribution 4 h p.i., Small intestine: 4.88 ± 1.28 %ID/g
  ^18F-mFBG biodistribution 4 h p.i., Spleen: 2.27 ± 1.06 %ID/g
  ^18F-mFBG biodistribution 4 h p.i., Tumour: 3.95 ± 1.53 %ID/g
  ^18F-mFBG biodistribution 4 h p.i., Tumour:blood: 23.76 ± 6.20
  ^18F-mFBG biodistribution 4 h p.i., Tumour:muscle: 7.06 ± 1.79
1 day AZD2014 (20 mg/kg/day)
  ^18F-mFBG biodistribution 4 h p.i., Blood: 0.18 ± 0.04 %ID/g
  ^18F-mFBG biodistribution 4 h p.i., Bone: 4.55 ± 2.15^c %ID/g
  ^18F-mFBG biodistribution 4 h p.i., Brown adipose: 5.47 ± 0.45^b %ID/g
  ^18F-mFBG biodistribution 4 h p.i., Heart: 4.34 ± 2.38 %ID/g
  ^18F-mFBG biodistribution 4 h p.i., Kidney: 0.98 ± 0.04 %ID/g
  ^18F-mFBG biodistribution 4 h p.i., Liver: 1.63 ± 0.69 %ID/g
  ^18F-mFBG biodistribution 4 h p.i., Lungs: 1.27 ± 0.68 %ID/g
  ^18F-mFBG biodistribution 4 h p.i., Muscle: 0.59 ± 0.16 %ID/g
  ^18F-mFBG biodistribution 4 h p.i., Pancreas: 1.09 ± 0.42 %ID/g
  ^18F-mFBG biodistribution 4 h p.i., Small intestine: 4.79 ± 1.21 %ID/g
  ^18F-mFBG biodistribution 4 h p.i., Spleen: 2.93 ± 0.82 %ID/g
  ^18F-mFBG biodistribution 4 h p.i., Tumour: 3.29 ± 1.01 %ID/g
  ^18F-mFBG biodistribution 4 h p.i., Tumour:blood: 17.72 ± 2.35
  ^18F-mFBG biodistribution 4 h p.i., Tumour:muscle: 5.74 ± 1.77
1 day vehicle
  ^18F-mFBG biodistribution 4 h p.i., Blood: 0.18 ± 0.02 %ID/g
  ^18F-mFBG biodistribution 4 h p.i., Bone: 4.98 ± 2.18^c %ID/g
  ^18F-mFBG biodistribution 4 h p.i., Brown adipose: 5.14 ± 0.38^b %ID/g
  ^18F-mFBG biodistribution 4 h p.i., Heart: 4.38 ± 1.68 %ID/g
  ^18F-mFBG biodistribution 4 h p.i., Kidney: 0.79 ± 0.36 %ID/g
  ^18F-mFBG biodistribution 4 h p.i., Liver: 1.94 ± 0.30 %ID/g
  ^18F-mFBG biodistribution 4 h p.i., Lungs: 1.22 ± 0.37 %ID/g
  ^18F-mFBG biodistribution 4 h p.i., Muscle: 0.60 ± 0.13 %ID/g
  ^18F-mFBG biodistribution 4 h p.i., Pancreas: 1.01 ± 0.18 %ID/g
  ^18F-mFBG biodistribution 4 h p.i., Small intestine: 4.50 ± 0.24^b %ID/g
  ^18F-mFBG biodistribution 4 h p.i., Spleen: 3.19 ± 0.63 %ID/g
  ^18F-mFBG biodistribution 4 h p.i., Tumour: 2.76 ± 1.14 %ID/g
  ^18F-mFBG biodistribution 4 h p.i., Tumour:blood: 15.27 ± 5.32
  ^18F-mFBG biodistribution 4 h p.i., Tumour:muscle: 4.44 ± 0.94
3 day vehicle
  ^18F-mFBG biodistribution 4 h p.i., Blood: 0.18 ± 0.08 %ID/g
  ^18F-mFBG biodistribution 4 h p.i., Bone: 1.64 ± 0.45 %ID/g
  ^18F-mFBG biodistribution 4 h p.i., Brown adipose: 5.15 ± 0.78^b %ID/g
  ^18F-mFBG biodistribution 4 h p.i., Heart: 3.64 ± 0.89 %ID/g
  ^18F-mFBG biodistribution 4 h p.i., Kidney: 1.13 ± 0.47 %ID/g
  ^18F-mFBG biodistribution 4 h p.i., Liver: 1.96 ± 0.02 %ID/g
  ^18F-mFBG biodistribution 4 h p.i., Lungs: 1.15 ± 0.23 %ID/g
  ^18F-mFBG biodistribution 4 h p.i., Muscle: 0.53 ± 0.19 %ID/g
  ^18F-mFBG biodistribution 4 h p.i., Pancreas: 1.25 ± 0.51 %ID/g
  ^18F-mFBG biodistribution 4 h p.i., Small intestine: 5.32 ± 0.11 %ID/g
  ^18F-mFBG biodistribution 4 h p.i., Spleen: 2.08 ± 1.29 %ID/g
  ^18F-mFBG biodistribution 4 h p.i., Tumour: 2.39 ± 0.10 %ID/g
  ^18F-mFBG biodistribution 4 h p.i., Tumour:blood: 14.47 ± 4.61
  ^18F-mFBG biodistribution 4 h p.i., Tumour:muscle: 4.89 ± 1.48
7 day AZD2014 (20 mg/kg/day)
  ^18F-mFBG biodistribution 4 h p.i., Blood: 0.32 ± 0.14 %ID/g
  ^18F-mFBG biodistribution 4 h p.i., Bone: 0.63 ± 0.54 %ID/g
  ^18F-mFBG biodistribution 4 h p.i., Brown adipose: 8.08 ± 0.72 %ID/g
  ^18F-mFBG biodistribution 4 h p.i., Heart: 4.17 ± 1.63 %ID/g
  ^18F-mFBG biodistribution 4 h p.i., Kidney: 1.02 ± 0.15 %ID/g
  ^18F-mFBG biodistribution 4 h p.i., Liver: 2.64 ± 0.46 %ID/g
  ^18F-mFBG biodistribution 4 h p.i., Lungs: 1.33 ± 0.36 %ID/g
  ^18F-mFBG biodistribution 4 h p.i., Muscle: 0.75 ± 0.02 %ID/g
  ^18F-mFBG biodistribution 4 h p.i., Pancreas: 3.08 ± 1.80 %ID/g
  ^18F-mFBG biodistribution 4 h p.i., Small intestine: 6.87 ± 1.86 %ID/g
  ^18F-mFBG biodistribution 4 h p.i., Spleen: 1.64 ± 0.46 %ID/g
  ^18F-mFBG biodistribution 4 h p.i., Tumour: 2.61 ± 1.19 %ID/g
  ^18F-mFBG biodistribution 4 h p.i., Tumour:blood: 8.06 ± 2.57
  ^18F-mFBG biodistribution 4 h p.i., Tumour:muscle: 3.50 ± 1.62
7 day vehicle
  ^18F-mFBG biodistribution 4 h p.i., Blood: 0.17 ± 0.06 %ID/g
  ^18F-mFBG biodistribution 4 h p.i., Bone: 1.13 ± 0.20 %ID/g
  ^18F-mFBG biodistribution 4 h p.i., Brown adipose: 6.08 ± 2.45 %ID/g
  ^18F-mFBG biodistribution 4 h p.i., Heart: 5.87 ± 2.80 %ID/g
  ^18F-mFBG biodistribution 4 h p.i., Kidney: 1.09 ± 0.16 %ID/g
  ^18F-mFBG biodistribution 4 h p.i., Liver: 2.15 ± 0.30 %ID/g
  ^18F-mFBG biodistribution 4 h p.i., Lungs: 1.86 ± 0.64 %ID/g
  ^18F-mFBG biodistribution 4 h p.i., Muscle: 0.67 ± 0.07 %ID/g
  ^18F-mFBG biodistribution 4 h p.i., Pancreas: 2.81 ± 1.72 %ID/g
  ^18F-mFBG biodistribution 4 h p.i., Small intestine: 6.22 ± 0.35 %ID/g
  ^18F-mFBG biodistribution 4 h p.i., Spleen: 1.75 ± 0.67 %ID/g
  ^18F-mFBG biodistribution 4 h p.i., Tumour: 2.17 ± 1.01 %ID/g
  ^18F-mFBG biodistribution 4 h p.i., Tumour:blood: 15.55 ± 13.55
  ^18F-mFBG biodistribution 4 h p.i., Tumour:muscle: 3.36 ± 1.90
